Reference: patent US12240862B2, “Inhibitors of peptidylarginine deiminases” (Gilead Sciences, Inc., priority 2020, dated 2025)

Target: T1, human PAD4 (Homo sapiens, UniProt Q9UM07)
T1 construct: human PAD4 (NM_012387), A2P663, was PCR amplified; His-SUMO (N, cleaved yes); made in house; host or cells: E. coli BL21(DE3)
Test: In vitro PAD4 BAEE biochemical assay
Settings: human PAD4, BAEE substrate; 5 nM PAD4, 2 mM calcium chloride, 3 mM BAEE; geometric mean of multiple experiments
Method in brief: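 Ammonia release from BAEE deimination monitored by o-phthalaldehyde amine coupling (1 h, 25 °C) after EDTA stop. Final conditions: 5 nM tag-free recombinant human PAD4 (E. coli), 2 mM CaCl2, 3 mM BAEE, pH 7.6 MOPS with DTT; 30 min compound preincubation, then 2 h reaction at 25 °C.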

T1 sequence (Q9UM07 2-663): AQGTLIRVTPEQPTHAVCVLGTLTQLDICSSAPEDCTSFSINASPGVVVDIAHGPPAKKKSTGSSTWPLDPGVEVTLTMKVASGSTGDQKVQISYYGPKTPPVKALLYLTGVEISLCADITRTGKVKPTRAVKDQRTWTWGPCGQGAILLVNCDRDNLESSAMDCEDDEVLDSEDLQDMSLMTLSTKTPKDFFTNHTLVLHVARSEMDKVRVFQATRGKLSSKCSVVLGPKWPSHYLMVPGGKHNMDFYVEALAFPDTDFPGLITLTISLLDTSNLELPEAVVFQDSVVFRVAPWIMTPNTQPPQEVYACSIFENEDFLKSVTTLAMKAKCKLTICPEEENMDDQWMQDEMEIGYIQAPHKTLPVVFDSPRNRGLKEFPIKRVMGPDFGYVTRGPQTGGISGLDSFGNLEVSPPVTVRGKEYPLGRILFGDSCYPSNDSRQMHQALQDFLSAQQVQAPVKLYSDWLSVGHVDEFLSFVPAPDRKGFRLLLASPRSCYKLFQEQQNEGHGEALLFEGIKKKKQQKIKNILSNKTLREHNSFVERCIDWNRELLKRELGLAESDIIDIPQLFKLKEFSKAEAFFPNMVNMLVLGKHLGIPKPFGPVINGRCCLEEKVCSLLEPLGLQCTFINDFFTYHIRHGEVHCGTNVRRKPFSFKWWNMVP

Row | SMILES | IC50 [nM]
1 | COc1cc(C(=O)N2[C@H]3CC[C@@H]2[C@H](N)C3)cc2nc(-c3cc4ccc([C@@H](C)N5CCCCC5=O)nc4n3CC3CC3)c(C)n12 [Example 271] | 35.6
2 | COc1cc(C(=O)N2[C@H]3CC[C@@H]2[C@H](N)C3)cc2nc(-c3cc4ccc([C@@H](C)N5CCCC5)nc4n3CC3CC3)c(C)n12 [Example 272, [(1~{R},2~{R},4~{S})-2-amino-7-azabicyclo [2.2.1]heptan-7-yl]-[2-[1-(cyclopropylmethyl)-6-[(1~{R})-1-pyrrolidin-1-ylethyl]pyrrolo[2,3-b]pyridin-2-yl]-5-methoxy-3-methylimidazo[1,2-a]pyridin-7-yl]methanone] | 134
3 | COc1cc(C(=O)N2[C@H]3CC[C@@H]2[C@H](N)C3)cc2nc(-c3cc4ccc([C@@H](C)N5CCOCC5=O)nc4n3CC3CC3)c(C)n12 [Example 274, 4-[(1~{R})-1-[2-[7-[(1~{R},2~{R},4~{S})-2-amino-7-azabicyclo[2.2.1]heptane-7-carbonyl]-5-methoxy-3-methylimidazo [1,2-a]pyridin-2-yl]-1-(cyclopropylmethyl)pyrrolo [2,3-b]pyridin-6-yl]ethyl]morpholin-3-one] | 252
4 | COc1cc(C(=O)N2[C@H]3CC[C@@H]2[C@H](N)C3)cc2nc(-c3cc4ccc([C@@H](C)N5CCOC5=O)nc4n3CC3CC3)c(C)n12 [Example 275, 3-((R)-1-(2-(7-((1R,2R,4S)-2-amino-7-azabicyclo[2.2.1]heptane-7-carbonyl)-5-methoxy-3-methylimidazo[1,2-a]pyridin-2-yl)-1-(cyclopropylmethyl)-1H-pyrrolo[2,3-b]pyridin-6-yl)ethyl)oxazolidin-2-one] | 14.1
5 | COc1cc(C(=O)N2CCC[C@@H](N)C2)cc2nc(-c3cc4ccc([C@@H](C)N5CCOC5=O)nc4n3CC3CC3)c(C)n12 [Example 278, 3-[(1~{R})-1-[2-[7-[(3~{R})-3-aminopiperidine-1-carbonyl]-5-methoxy-3-methylimidazo [1,2-a]pyridin-2-yl]-1-(cyclopropylmethyl)pyrrolo [2,3-b]pyridin-6-yl]ethyl]-1,3-oxazolidin-2-one] | 144
6 | COc1cc(C(=O)N2C[C@@H](N)[C@H](F)C2)cc2nc(-c3cc4ccc(N(C(F)F)S(C)(=O)=O)nc4n3CC3CC3)c(C)n12 [Example 280, ~{N}-[2-[7-[(3~{R}, 4~{R})-3-amino-4-fluoropyrrolidine-1-carbonyl]-5-methoxy-3-methylimidazo [1,2-a]pyridin-2-yl]-1-(cyclopropylmethyl)pyrrolo[2,3-b]pyridin-6-yl]-~{N}-(difluoromethyl) methanesulfonamide] | 33800
7 | COc1cc(C(=O)N[C@@H]2CNCC[C@H]2C)cc2nc(-c3cc4ccc(N(C(F)F)S(C)(=O)=O)nc4n3CC3CC3)c(C)n12 [Example 281, 2-[1-(cyclopropylmethyl)-6-[difluoromethyl (methylsulfonyl)amino]pyrrolo[2,3-b]pyridin-2-yl]-5-methoxy-3-methyl-~{N}-[(3~{S},4~{R})-4-methylpiperidin-3-yl] imidazo[1,2-a]pyridine-7-carboxamide] | 16200
8 | COc1cc(C(=O)N[C@H]2CNCC[C@@H]2C)cc2nc(-c3cc4ccc(N(C(F)F)S(C)(=O)=O)nc4n3CC3CC3)c(C)n12 [Example 282, 2-[1-(cyclopropylmethyl)-6-[difluoromethyl (methylsulfonyl)amino]pyrrolo[2,3-b]pyridin-2-yl]-5-methoxy-3-methyl-~{N}-[(3~{R},4~{S})-4-methylpiperidin-3-yl]imidazo[1,2-a] pyridine-7-carboxamide] | 10400
9 | COc1cc(C(=O)N2C[C@H]3CNCC[C@H]32)cc2nc(-c3cc4ccc(N(C(F)F)S(C)(=O)=O)nc4n3CC3CC3)c(C)n12 [Example 284, ~{N}-[1-(cyclopropylmethyl)-2-[7-[(1~{R},6~{R})-3,7-diazabicyclo[4.2.0]octane-7-carbonyl]-5-methoxy-3-methylimidazo[1,2-a]pyridin-2-yl]pyrrolo[2,3-b]pyridin-6-yl]-~{N}-(difluoromethyl) methanesulfonamide] | 13400
10 | COc1cc(C(=O)N[C@H]2CNCC[C@@H]2OC)cc2nc(-c3cc4ccc(N(C(F)F)S(C)(=O)=O)nc4n3CC3CC3)c(C)n12 [Example 285, 2-[1-(cyclopropylmethyl)-6-[difluoromethyl (methylsulfonyl)amino]pyrrolo[2,3-b]pyridin-2-yl]-5-methoxy-~ {N}-[(3~{S},4~{S})-4-methoxypiperidin-3-yl]-3-methylimidazo[1,2-a] pyridine-7-carboxamide] | 14000

Continued by falling IC50, values first:

Row | IC50 [nM] | SMILES
11 | 46300 | COc1cc(C(=O)N2C[C@@H]3CCNCC32)cc2nc(-c3cc4ccc(N(C(F)F)S(C)(=O)=O)nc4n3CC3CC3)c(C)n12 (stereo partly shown) [Example 287, ~{N}-[1-(cyclopropylmethyl)-2-[7-[(6~{S},8~{R})-3,8-diazabicyclo[4.2.0]octane-8-carbonyl]-5-methoxy-3-methylimidazo[1,2-a]pyridin-2-yl]pyrrolo[2,3-b]pyridin-6-yl]-~{N}-(difluoromethyl) methanesulfonamide]
12 | 11700 | COc1cc(C(=O)N2C[C@@H]3CNCC[C@@H]32)cc2nc(-c3cc4ccc(N(C(F)F)S(C)(=O)=O)nc4n3CC3CC3)c(C)n12 [Example 283, ~{N}-[1-(cyclopropylmethyl)-2-[7-[(1~{S},6~{S})-3,7-diazabicyclo[4.2.0]octane-7-carbonyl]-5-methoxy-3-methylimidazo[1,2-a]pyridin-2-yl]pyrrolo[2,3-b]pyridin-6-yl]-~{N}-(difluoromethyl) methanesulfonamide]
13 | 234 | COc1cc(C(=O)N2CCC[C@@H](N)C2)cc2nc(-c3cc4ccc([C@@H](C)N5CCCC5=O)nc4n3CC3CC3)c(C)n12 [Example 279, 1-[(1~{R})-1-[2-[7-[(3~{R})-3-aminopiperidine-1-carbonyl]-5-methoxy-3-methylimidazo [1,2-a]pyridin-2-yl]-1-(cyclopropylmethyl)pyrrolo [2,3-b]pyridin-6-yl]ethyl] pyrrolidin-2-one]
14 | 191 | COc1cc(C(=O)N2[C@H]3CC[C@@H]2[C@H](N)C3)cc2nc(-c3cc4ccc([C@@H](C)N5CCOCC5)nc4n3CC3CC3)c(C)n12 [Example 277, [(1~{R},2~{R},4~{S})-2-amino-7-azabicyclo [2.2.1]heptan-7-yl]-[2-[1-(cyclopropylmethyl)-6-[(1~{R})-1-morpholin-4-ylethyl]pyrrolo[2,3-b]pyridin-2-yl]-5-methoxy-3-methylimidazo[1,2-a]pyridin-7-yl]methanone]
15 | 83.1 | COc1cc(C(=O)N2[C@H]3CC[C@@H]2[C@H](N)C3)cc2nc(-c3cc4ccc([C@@H](C)N5CCNC5=O)nc4n3CC3CC3)c(C)n12 [Example 273, 1-[(1~{R})-1-[2-[7-[(1~{R},2~{R},4~{S})-2-amino-7-azabicyclo[2.2.1]heptane-7-carbonyl]-5-methoxy-3-methylimidazo [1,2-a]pyridin-2-yl]-1-(cyclopropylmethyl)pyrrolo [2,3-b]pyridin-6-yl]ethyl] imidazolidin-2-one]
16 | 61.6 | COc1cc(C(=O)N2[C@H]3CC[C@@H]2[C@H](N)C3)cc2nc(-c3cc4ccc([C@@H](C)N5CCCC5=O)nc4n3CC3CC3)c(C)n12 [Example 276, 1-[(1~{R})-1-[2-[7-[(1~{R},2~{R},4~{S})-2-amino-7-azabicyclo[2.2.1]heptane-7-carbonyl]-5-methoxy-3-methylimidazo [1,2-a]pyridin-2-yl]-1-(cyclopropylmethyl)pyrrolo [2,3-b]pyridin-6-yl]ethyl]pyrrolidin-2-one]
